Assay results taken from patent US20120052130A1, “GPR 119 MODULATORS” (Pfizer Inc., priority 2009, published 2012).

Experiments:
[1] = target: T1, human GPR119 (Homo sapiens, UniProt Q8TDV5); assay: HTRF cAMP cell-based GPR119 agonist assay (hGPR119 HEK-CRE beta-lactamase cells); set-up: host or cells: hGPR119-HEK293-CRE-beta-lactamase cells; conditions: percent of maximal activity relative to standard GPR119 agonist (WO2005121121) at 10 micromolar
T1 sequence (Q8TDV5 1-335): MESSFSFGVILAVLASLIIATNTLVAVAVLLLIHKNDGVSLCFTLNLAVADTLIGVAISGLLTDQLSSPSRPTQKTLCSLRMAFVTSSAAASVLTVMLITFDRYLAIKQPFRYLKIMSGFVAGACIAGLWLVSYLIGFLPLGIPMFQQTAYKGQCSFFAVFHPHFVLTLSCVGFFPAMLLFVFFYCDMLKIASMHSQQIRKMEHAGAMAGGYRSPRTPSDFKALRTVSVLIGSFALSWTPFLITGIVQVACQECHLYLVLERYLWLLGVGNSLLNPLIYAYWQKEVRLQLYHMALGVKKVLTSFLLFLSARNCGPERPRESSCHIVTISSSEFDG
Procedure: GPR119 agonist activity was also determined with a cell-based assay utilizing an HTRF (Homogeneous Time-Resolved Fluorescence) cAMP detection kit (cAMP dynamic 2 Assay Kit; Cis Bio cat #62AM4PEC) that measures cAMP levels in the cell. The method is a competitive immunoassay between native cAMP produced by the cells and the cAMP labeled with the dye d2. The tracer binding is visualized by a Mab anti-cAMP labeled with Cryptate. The specific signal (i.e. energy transfer) is inversely proportional to the concentration of cAMP in either standard or sample.
Specifically, hGPR119HEK-CRE beta-lactamase cells (Invitrogen 2.5×10^7/mL; the same cell line used in the beta-lactamase assay described above) are removed from cryopreservation and diluted in growth medium (Dulbecco's modified Eagle medium high glucose (DMEM; Gibco Cat #11995-065), 1% charcoal dextran treated fetal bovine serum (CD serum; HyClone Cat # SH30068.03), 1×MEM Nonessential amino acids (Gibco Cat #15630-080) and 25 mM HEPES pH 7.0 (Gibco Cat #15630-080)). The cell concentration was adjusted to 1.5×10^5 cells/mL and 30 mLs of this suspension was added to a T-175 flask and incubated at 37 degrees Celsius in a humidified environment in 5% carbon dioxide. […]
Varying concentrations of each compound to be tested were diluted in assay buffer containing 3-isobutyl-1-methylxanthin (IBMX; Sigma cat #15879) and added to the assay plate wells in a volume of 2 microL (final IBMX concentration was 400 microM and final DMSO concentration was 0.58%). […] The plates were then incubated at room temperature and after 60 minutes, changes in the HTRF signal were read with an Envision 2104 multilabel plate reader using excitation of 330 nm and emissions of 615 and 665 nm. Raw data were converted to nM cAMP by interpolation from a cAMP standard curve (as described in the manufacturer's assay protocol) and EC50 determinations were made from an agonist-response curves analyzed with a curve fitting program using a 4-paramter logistic dose response equation.

[2] = target: T1, human GPR119; assay: β-lactamase reporter functional assay for GPR119 agonists (hGPR119 HEK293-CRE beta-lactamase cells); format: cell-based; set-up: host or cells: hGPR119-HEK293-CRE-beta-lactamase cells; Emax: dose or concentration left out as unconfirmed; conditions: percent of maximal activity relative to standard GPR119 agonist (WO2005121121) at 10 micromolar; read-out: Human B-lactamase Intrinsic Activity*
Procedure: The assay for GPR119 agonists utilizes a cell-based (hGPR119HEK293-CRE beta-lactamase) reporter construct where agonist activation of human GPR119 is coupled to beta-lactamase production via a cyclic AMP response element (CRE). GPR119 activity is then measured utilizing a FRET-enabled beta-lactamase substrate, CCF4-AM (Live Blazer FRET-B/G Loading kit, Invitrogen cat #K1027). […] Fluorescence was measured on an EnVision fluorimetric plate reader, excitation 405 nm, emission 460 nm/535 nm. EC50 determinations were made from agonist-response curves analyzed with a curve fitting program using a 4-parameter logistic dose-response equation.

Human cAMP Intrinsic Activity* [1] [%]	Emax [2] [%]	Compound
107	–	CC(C)OC(=O)N1CCC(Oc2cc(N3CCc4cc(S(C)(=O)=O)ccc43)ncn2)CC1 [Example 3, Isopropyl 4-({6-[5-(methylsulfonyl)-2,3-dihydro-1H-indol-1-yl]pyrimidin-4-yl}oxy)piperidine-1-carboxylate]
–	109	CC(C)OC(=O)N1C[C@H]2COC[C@@H](C1)[C@@H]2Oc1cc(N2CCc3cc(S(C)(=O)=O)ccc32)ncn1 [Example 2, Isopropyl 9-syn-({6-[5-(methylsulfonyl)-2,3-dihydro-1H-indol-1-yl]pyrimidin-4-yl}oxy)-3-oxa-7-azabicyclo[3.3.1]nonane-7-carboxylate]
